{"source": "patent US8389739B1", "about": "“Modulators of retinoid-related orphan receptor gamma” (Orphagen Pharmaceuticals, priority 2006, dated 2013)", "key": {"[1]": {"system": "IL-17 release and TH-17 cells in lymph node cultures", "test": "Lymph node cell cultures from PLP-immunized SJL/J mice, IL-17 ELISA and Th-17 FACS", "assay_type": "cell-based", "procedure": "(§1) FIGS. 13A-F. IL-17 levels in lymph node cells from mice immunized with myelin-derived peptides respond to cognate peptide antigens, IL-23 and RORγ ligands. (FIG. 13A) SJL/J mice were immunized by complete Freund's adjuvant (CFA) only or by Proteolipid Protein residues 139-151 (PLP139-151) emulsified in CFA. Lymph nodes were cultured for 3 days in with or without 40 μg/ml PLP in the presence or absence of OR-885. Culture media were analyzed by ELISA for IL-17. (FIGS. 13B-C) Lymph node cells from PLP-immunized SJL/J mice were cultured as before with the addition of 10 ng/ml IL-23 and 3 μM compounds. At the end of 1 day or 3 days in culture, Th-17 (CD4^+CD8^−IL17^+) cell frequency was measured by FACS (FIG. 13B) and compared to IL-17 levels in culture media (FIG. 13C). (FIGS. 13D-F) Lymph node cells from MOG35-55 immunized C57BL/6 mice were cultured for 3 days with 30 μg/ml MOG and/or 10 ng/ml IL-23. RORγ ligands were not added (FIG. 13D), or added at the beginning of the culture at a single concentration (FIG. 13E, 1 μM) or in multiple doses (FIG. 13F).\nFIG. 14. Inhibition of IL-17 release in mouse lymph node cultures by the RORγ antagonist OR-885 can be reversed by the RORγ agonist OR-12872. The lymph node cells were culture in the presence of 10 ng/mL IL-23 and 40 μg/mL PLP for three days under identical conditions to FIG. 13 and IL-17 in the culture supernatant was measured by ELISA.\nELISA kits for mouse IL-17 and human IL-17 were from eBioscience (San Diego, Calif.). ELISA assays were performed following the manufacturer's protocol. Certain samples were diluted 20-fold to avoid maximization of enzymatic signals. For mouse IL-22 ELISA, antibodies and standards were from Antigenix America (Huntington Station, N.Y.) and accessory components were from eBioscience. The IL-22 assay protocol was similar to that of the IL-17 assays. […]"}, "[2]": {"system": "IL-17 release in lymph node cultures", "test": "Lymph node cell cultures from MOG35-55 immunized C57BL/6 mice, IL-17 ELISA", "assay_type": "cell-based", "details": "Mus musculus, 72 h; MOG and IL-23, 3 days, dose-response (FIG. 13F); read-out: EC50 for inhibition of IL-17 production", "procedure": "as §1, with “13F). […]” for “13F).”\nOverall, cultured lymph node cells that are stimulated with IL-23 and peptide antigens provide a model system to examine IL-17 production ex vivo (FIG. 13D). We analyzed a variety of RORγ ligands for their ability to regulate IL-17 (FIG. 13E). […] This potency is consistent with that measured in the CHO cell transcription assay."}, "[3]": {"system": "splenic TH-17 and TH1 cells", "test": "Splenic TH-17 and TH1 cells in MOG-immunized C57BL/6 mice", "assay_type": "in vivo", "details": "100 mg/kg oral gavage for 9 days", "procedure": "C57BL/6 female mice were immunized with 150 μg […] on study day 0. Mice were treated with either OR-1050 at 100 mg/kg or with vehicle (HRC-6) by oral gavage for 9 days starting day O, Splenocytes were collected at Day 9 and stained for TH-17 (CD4^+CD8^−IL17^+) and TH1 (CD4^+CD8^−IFNγ^+) cells. Statistics were performed by Student's t-test."}, "[4]": {"system": "IL-17 release from CD4+ naïve murine T cells", "test": "IL-17 release into culture medium during TH-17 differentiation (ELISA)", "assay_type": "cell-based, mouse", "details": "3 μM, in the presence or absence of 3 μM OR-12872, day 4 (FIG. 10)", "procedure": "FIG. 10. IL-17 release into culture medium was measured four days after induction of TH-17 differentiation in CD4^+ naïve murine T cells, following the methods of FIG. 7. Each antagonist (OR-885, OR-1050, OR-13571, and OR-2161) was incubated in the cultures at 3 μM, in the presence or absence of OR-12872, also at 3 μM. On day 4, culture supernatants were saved and IL-17 measured by ELISA.\nPurified CD4^+CD62L^+ T cells were plated in 24-well plates with 2−4×10^5 cells in 700 ul volume of RPMI 1640 media containing 10% heat-inactivated FCS, 100 IU penicillin, 100 μg/ml streptomycin, 1× non-essential amino acids, 1 mM pyruvate, 2 mM glutamine, and 50 μM […] (Veldhoen, Hocking et al. 2006). T cells were stimulated with exogenous cytokines and anti-CD3/anti-CD28 conjugated Dynabeads (Dynal Biotech, Oslo) at a 1:1 ratio of beads to cells. Exogenous cytokines used were: 4 ng/ml TGF-β, 20 ng/ml of IL-6, or 10 ng/ml IL-12. RORγ agonist and antagonist ligands, dissolved in DMSO, were added directly to cell cultures, to a final concentration of 0.01%. Cytokines and RORγ ligands were added immediately after cell plating.\nELISA kits for mouse IL-17 and human IL-17 were from eBioscience (San Diego, Calif.). ELISA assays were performed following the manufacturer's protocol. Certain samples were diluted 20-fold to avoid maximization of enzymatic signals. […]"}}, "data": [{"smiles": "C[C@@H]1CC[C@@]2(OC1)O[C@H]1C[C@H]3[C@@H]4CC[C@H]5C[C@@H](O)CC[C@]5(C)[C@H]4C[C@@H](O)[C@]3(C)[C@H]1[C@@H]2C", "note": "[OR-885, 5α,20α, 22α, 25D-SPIROSTAN-3β, 12β-DIOL]", "values": [{"measurement": "induction of TH-17 cells (as a percentage of total live cells)", "setting": "[1]; PLP, 10 ng/ml IL-23, 3 μM compounds (FIG. 13B)", "value": "block"}, {"measurement": "PLP-stimulated release of IL-17", "setting": "[1]; lymph node cultures, 40 μg/ml PLP, 3 days", "value": "inhibited"}, {"measurement": "EC50", "setting": "[2]", "value": "~200", "unit": "nM"}]}, {"smiles": "CCN(c1ccc(C(O)(C(F)(F)F)C(F)(F)F)cc1)S(=O)(=O)c1ccc([N+](=O)[O-])cc1", "note": "[OR-1050, N-Ethyl-4-nitro-N-[4-(2,2,2-trifluoro-1-hydroxy-1-trifluoromethyl-ethyl)-phenyl]-benzenesulfonamide]", "values": [{"measurement": "change in TH1 cells", "setting": "[3]", "value": "no change in TH1 cells"}, {"measurement": "inhibition of splenic TH-17 cells", "setting": "[3]; HRC-6, p<0.05, n=8-10", "value": 29, "unit": "%"}]}, {"smiles": "COC(C)CCC(C)C1CCC2C3CC(O)C4CC(O)CCC4(C)C3CCC12C", "note": "(stereo not shown) [OR-12872, 17-(4-Methoxy-1-methyl-pentyl)-10,13-dimethyl-hexadecahydro-cyclopenta[a]phenanthrene-3,6-diol]", "values": [{"measurement": "reversal of antagonist suppression of IL-17 release", "setting": "[1]; 10 ng/mL IL-23 and 40 μg/mL PLP, three days (FIG. 14)", "value": "reverses the suppressive effects of OR-885 on IL-17 release"}, {"measurement": "IL-17 release during TH-17 differentiation", "setting": "[4]", "value": "reverses the effect of each of the antagonists"}]}]}
